According to the supplement of paper PMC10307832:

Experiments:
Assay in all cases: relative viability (nuclei count vs DMSO), 5 days (fraction); higher = more cells survive
[1] = system: PC-14
Outline: (§1)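 Relative viability equals treated-well nuclei counts divided by vehicle-well nuclei counts. Counts came from 4× images of lung cancer cell lines grown in 1536-well plates for 5 days after pin-tool dosing on the day after seeding. Dosing used one drug alone or a fixed anchor-drug dose plus five library-drug doses (not always all listed) in √10 steps, and values are medians of duplicate plates.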

[2] = system: LOU-NH91
Outline: as §1

[3] = system: HARA
Outline: as §1

[4] = system: NCI-H1437
Outline: as §1

[5] = system: ABC-1
Outline: as §1

[6] = system: NCI-H1666
Outline: as §1

[7] = system: COR-L 105
Outline: as §1

[8] = system: NCI-H661
Outline: as §1

[9] = system: NCI-H1650
Outline: as §1

[10] = system: NCI-H2170
Outline: as §1

[11] = system: NCI-H727
Outline: as §1

[12] = system: CAL-12T
Outline: as §1

[13] = system: 201T
Outline: as §1

[14] = system: BEN
Outline: as §1

[15] = system: HCC-366
Outline: as §1

[16] = system: LK-2
Outline: as §1

[17] = system: EKVX
Outline: as §1

[18] = system: NCI-H2009
Outline: as §1

[19] = system: NCI-H3122
Outline: as §1

[20] = system: NCI-H441
Outline: as §1

[21] = system: SW 900
Outline: as §1

[22] = system: NCI-H460
Outline: as §1

For `CC(=O)O[C@@]12CO[C@@H]1C[C@H](O)[C@@]1(C)C(=O)[C@H](O)C3=C(C)[C@@H](OC(=O)[C@H](O)[C@@H](NC(=O)OC(C)(C)C)c4ccccc4)C[C@@](O)([C@@H](OC(=O)c4ccccc4)[C@H]21)C3(C)C` [Docetaxel] + CC(=O)c1c(C)c2cnc(Nc3ccc(N4CCNCC4)cn3)nc2n(C2CCCC2)c1=O [Palbociclib] (partner 0.5 µM), which relative viability ([1]; first compound 0.0002 µM) is on record?
The relative viability was 0.466.

And the relative viability ([1]; first compound 0.000632 µM)?
Its relative viability is 0.501.

And the relative viability ([1]; first compound 0.002 µM)?
Its relative viability is 0.0828.

And the relative viability ([1]; first compound 0.006325 µM)?
Its relative viability is 0.0351.

What about the relative viability ([1]; first compound 0.02 µM) of the same compound?
Its relative viability is 0.0299.

What about the relative viability ([2]; first compound 0.0002 µM) of the same compound?
The relative viability was 0.553.

What about the relative viability ([2]; first compound 0.000632 µM) of the same compound?
Its relative viability is 0.534.

What about the relative viability ([2]; first compound 0.002 µM) of the same compound?
Its relative viability is 0.491.

What about the relative viability ([2]; first compound 0.006325 µM) of the same compound?
Its relative viability is 0.43.

And the relative viability ([2]; first compound 0.02 µM)?
The relative viability was 0.324.

What about the relative viability ([3]; first compound 0.0002 µM) of the same compound?
The relative viability was 0.222.

And the relative viability ([3]; first compound 0.000632 µM)?
Its relative viability is 0.189.

What about the relative viability ([3]; first compound 0.002 µM) of the same compound?
The relative viability was 0.168.

And the relative viability ([3]; first compound 0.006325 µM)?
Its relative viability is 0.128.

What about the relative viability ([3]; first compound 0.02 µM) of the same compound?
The relative viability was 0.0982.

And the relative viability ([4]; first compound 0.0002 µM)?
Its relative viability is 0.261.

What about the relative viability ([4]; first compound 0.000632 µM) of the same compound?
The relative viability was 0.33.

And the relative viability ([4]; first compound 0.002 µM)?
Its relative viability is 0.297.

What about the relative viability ([4]; first compound 0.02 µM) of the same compound?
Its relative viability is 0.156.

And the relative viability ([5]; first compound 0.0002 µM)?
The relative viability was 0.568.

And the relative viability ([5]; first compound 0.000632 µM)?
Its relative viability is 0.587.

And the relative viability ([5]; first compound 0.002 µM)?
The relative viability was 0.539.

And the relative viability ([5]; first compound 0.006325 µM)?
Its relative viability is 0.444.

And the relative viability ([5]; first compound 0.02 µM)?
The relative viability was 0.437.

And the relative viability ([6]; first compound 0.0002 µM)?
Its relative viability is 0.628.

What about the relative viability ([6]; first compound 0.000632 µM) of the same compound?
Its relative viability is 0.666.

What about the relative viability ([6]; first compound 0.002 µM) of the same compound?
The relative viability was 0.795.

What about the relative viability ([6]; first compound 0.006325 µM) of the same compound?
The relative viability was 0.712.

What about the relative viability ([6]; first compound 0.02 µM) of the same compound?
The relative viability was 0.581.

What about the relative viability ([7]; first compound 0.0002 µM) of the same compound?
Its relative viability is 0.393.

What about the relative viability ([7]; first compound 0.000632 µM) of the same compound?
The relative viability was 0.403.

And the relative viability ([7]; first compound 0.002 µM)?
The relative viability was 0.368.

What about the relative viability ([7]; first compound 0.006325 µM) of the same compound?
The relative viability was 0.353.

And the relative viability ([7]; first compound 0.02 µM)?
Its relative viability is 0.338.

And the relative viability ([8]; first compound 0.0002 µM)?
Its relative viability is 0.42.

And the relative viability ([8]; first compound 0.000632 µM)?
The relative viability was 0.448.

What about the relative viability ([8]; first compound 0.002 µM) of the same compound?
Its relative viability is 0.472.

What about the relative viability ([8]; first compound 0.006325 µM) of the same compound?
The relative viability was 0.377.

What about the relative viability ([8]; first compound 0.02 µM) of the same compound?
Its relative viability is 0.359.

What about the relative viability ([9]; first compound 0.0002 µM) of the same compound?
The relative viability was 0.257.

What about the relative viability ([9]; first compound 0.000632 µM) of the same compound?
Its relative viability is 0.263.

What about the relative viability ([9]; first compound 0.002 µM) of the same compound?
The relative viability was 0.207.

What about the relative viability ([9]; first compound 0.006325 µM) of the same compound?
Its relative viability is 0.216.

What about the relative viability ([9]; first compound 0.02 µM) of the same compound?
The relative viability was 0.138.

What about the relative viability ([10]; first compound 0.0002 µM) of the same compound?
Its relative viability is 0.409.

What about the relative viability ([10]; first compound 0.000632 µM) of the same compound?
The relative viability was 0.383.

And the relative viability ([10]; first compound 0.002 µM)?
The relative viability was 0.306.

And the relative viability ([10]; first compound 0.006325 µM)?
Its relative viability is 0.188.

And the relative viability ([10]; first compound 0.02 µM)?
The relative viability was 0.171.

What about the relative viability ([11]; first compound 0.0002 µM) of the same compound?
The relative viability was 0.618.

What about the relative viability ([11]; first compound 0.000632 µM) of the same compound?
Its relative viability is 0.64.

What about the relative viability ([11]; first compound 0.002 µM) of the same compound?
The relative viability was 0.629.

What about the relative viability ([11]; first compound 0.006325 µM) of the same compound?
Its relative viability is 0.538.

What about the relative viability ([11]; first compound 0.02 µM) of the same compound?
The relative viability was 0.446.

What about the relative viability ([12]; first compound 0.0002 µM) of the same compound?
The relative viability was 0.251.

And the relative viability ([12]; first compound 0.000632 µM)?
Its relative viability is 0.282.

What about the relative viability ([12]; first compound 0.002 µM) of the same compound?
The relative viability was 0.192.

And the relative viability ([12]; first compound 0.006325 µM)?
Its relative viability is 0.198.

And the relative viability ([12]; first compound 0.02 µM)?
The relative viability was 0.105.

And the relative viability ([13]; first compound 0.0002 µM)?
The relative viability was 0.357.

And the relative viability ([13]; first compound 0.000632 µM)?
Its relative viability is 0.369.

And the relative viability ([13]; first compound 0.002 µM)?
The relative viability was 0.367.

What about the relative viability ([13]; first compound 0.006325 µM) of the same compound?
The relative viability was 0.388.

And the relative viability ([13]; first compound 0.02 µM)?
The relative viability was 0.335.

And the relative viability ([14]; first compound 0.0002 µM)?
Its relative viability is 0.457.

And the relative viability ([14]; first compound 0.000632 µM)?
Its relative viability is 0.478.

And the relative viability ([14]; first compound 0.002 µM)?
The relative viability was 0.39.

What about the relative viability ([14]; first compound 0.006325 µM) of the same compound?
Its relative viability is 0.376.

What about the relative viability ([14]; first compound 0.02 µM) of the same compound?
The relative viability was 0.343.

And the relative viability ([15]; first compound 0.0002 µM)?
Its relative viability is 0.327.

What about the relative viability ([15]; first compound 0.000632 µM) of the same compound?
Its relative viability is 0.0952.

What about the relative viability ([15]; first compound 0.002 µM) of the same compound?
The relative viability was 0.066.

What about the relative viability ([15]; first compound 0.006325 µM) of the same compound?
Its relative viability is 0.0347.

What about the relative viability ([15]; first compound 0.02 µM) of the same compound?
The relative viability was 0.0219.

And the relative viability ([16]; first compound 0.0002 µM)?
Its relative viability is 0.507.

What about the relative viability ([16]; first compound 0.000632 µM) of the same compound?
The relative viability was 0.411.

What about the relative viability ([16]; first compound 0.002 µM) of the same compound?
The relative viability was 0.18.

What about the relative viability ([16]; first compound 0.006325 µM) of the same compound?
The relative viability was 0.108.

And the relative viability ([16]; first compound 0.02 µM)?
Its relative viability is 0.0873.

And the relative viability ([17]; first compound 0.0002 µM)?
Its relative viability is 0.337.

What about the relative viability ([17]; first compound 0.000632 µM) of the same compound?
Its relative viability is 0.36.

And the relative viability ([17]; first compound 0.002 µM)?
The relative viability was 0.245.

And the relative viability ([17]; first compound 0.006325 µM)?
The relative viability was 0.242.

And the relative viability ([17]; first compound 0.02 µM)?
Its relative viability is 0.149.

And the relative viability ([18]; first compound 0.0002 µM)?
The relative viability was 0.135.

And the relative viability ([18]; first compound 0.000632 µM)?
Its relative viability is 0.234.

What about the relative viability ([18]; first compound 0.002 µM) of the same compound?
The relative viability was 0.192.

And the relative viability ([18]; first compound 0.006325 µM)?
Its relative viability is 0.202.

And the relative viability ([18]; first compound 0.02 µM)?
The relative viability was 0.127.

What about the relative viability ([19]; first compound 0.0002 µM) of the same compound?
The relative viability was 0.184.

What about the relative viability ([19]; first compound 0.000632 µM) of the same compound?
Its relative viability is 0.205.

What about the relative viability ([19]; first compound 0.002 µM) of the same compound?
The relative viability was 0.174.

What about the relative viability ([19]; first compound 0.006325 µM) of the same compound?
The relative viability was 0.187.

And the relative viability ([19]; first compound 0.02 µM)?
Its relative viability is 0.114.

And the relative viability ([20]; first compound 0.0002 µM)?
Its relative viability is 0.215.

And the relative viability ([20]; first compound 0.000632 µM)?
Its relative viability is 0.218.

And the relative viability ([20]; first compound 0.002 µM)?
The relative viability was 0.209.

And the relative viability ([20]; first compound 0.006325 µM)?
Its relative viability is 0.2.

And the relative viability ([20]; first compound 0.02 µM)?
Its relative viability is 0.132.

What about the relative viability ([21]; first compound 0.0002 µM) of the same compound?
The relative viability was 0.511.

What about the relative viability ([21]; first compound 0.000632 µM) of the same compound?
The relative viability was 0.308.

And the relative viability ([21]; first compound 0.002 µM)?
The relative viability was 0.354.

What about the relative viability ([21]; first compound 0.006325 µM) of the same compound?
The relative viability was 0.332.

What about the relative viability ([21]; first compound 0.02 µM) of the same compound?
The relative viability was 0.264.

And the relative viability ([22]; first compound 0.0002 µM)?
The relative viability was 0.194.

What about the relative viability ([22]; first compound 0.000632 µM) of the same compound?
Its relative viability is 0.0505.

And the relative viability ([22]; first compound 0.002 µM)?
The relative viability was 0.0387.

And the relative viability ([22]; first compound 0.006325 µM)?
The relative viability was 0.01.

And the relative viability ([22]; first compound 0.02 µM)?
Its relative viability is 0.0125.
